Measurements published in US20140106967A1, “AUXIN PLANT GROWTH REGULATORS” (The Governors of The University of Alberta, priority 2011, published 2014).

Legend:
[1] = test system: Pisum sativum L. cv. Carneval; experiment: Growth chamber pea study: one 4-ME-IAA spray, heat-stressed and non-stressed plants (Tables 1, 2); type: in vivo; design: more pods per plant with mature seeds than control / increase in number of seeds per plant vs control / increase in total seed weight per plant vs control: tested at 1 µM
From the text: ‘Carneval’ (Pisum sativum L.) was chosen as a model cultivar as a semi-dwarf (semi-leafless; an field pea which is used extensively in crop agriculture. ‘Carneval’ has white flowers and yellow cotyledons at maturity, begins to flower at about the 15 to 17th node under long day conditions. Seeds of ‘Carneval’ were planted at an approximate depth of 2.5 cm in 3-L plastic pots (4 seeds per pot and thinned to 2 plants per pot after approximately 2 weeks) in 1:1 Sunshine #4 potting mix (Sun Gro Horticulture, Vancouver, Canada) and sand. Approximately 15 cc of slow-release fertilizer (14-14-14) was added to the potting mix at planting. The experiment was arranged in a completely randomized design and grown at the University of Alberta in a growth chamber set at 19° C./17° C. (day/night) with a 16/8-h photoperiod under cool-white fluorescent lights (F54/15/835/HO high fluorescent bulbs, Phillips, Holland; 350 μE m^2 s^−2, measured with a LI-188 photometer, Li-Cor Biosciences, Lincoln, Nebr.). For the heat stress treatment, plants were placed in a separate growth chamber with a 16/8-h photoperiod under cool-white fluorescent lights (F54/15/835/HO high fluorescent bulbs, Phillips, Holland) for 4 days where the temperature was cycled over a 24 hr period as follows: 34° C. air temperature for 6 hours per day (between 11:00 and 17:00 hrs) for 4 days during the light cycle; the remainder of the light cycle was maintained at a 22° C. air temperature; the dark cycle was maintained at 19° C. After the 4 day heat treatment, the plants were returned to the same growth chamber they were originally grown in, where they were taken to maturity. One application of 4-ME-IAA (1 μM in 0.1% Tween 80) or 0.1% Tween 80 (control) was applied as a spray to the entire plant to cover when the first flowering node of the main stem was at the flower bud or full bloom stage. For the heat stress treatment, the hormone or control application was completed 16 hrs prior to the initiation of the first heat-stress cycle.

[2] = test system: Pisum sativum L. cv. Carneval; experiment: Field study, seed yield of pea 'Carneval' (Table P1); type: in vivo; details: for Seed yield per 1 meter row: sprayed at about 5% first flower
From the text: In a field study, pea (Pisum sativum L. cv. Carneval) seed with a germination rate assessed at greater than 95% was planted on May 11, 2011 into black-loam soil that had been clean-cultivated for two previous growing seasons located at the Edmonton Research Station (ER31) of the University of Alberta, Edmonton, Alberta, Canada. The treatment plots measured 2 m wide by 3 m long, comprising rows 50 cm apart. The seeds were precision-drilled by hand at 5 cm intervals in each row. At the time of seeding, fresh TagTeam® granular rhizobial inoculant was drilled with the seed at the rate of 1.11 g per 6 m^2. No herbicides or pesticides were used during this study and plots were manually weeded to maintain weed-free plots. Seed emergence began on May 26, 2011 (15 days post-planting) due to cool temperature conditions after planting. Precipitation during the growing season was within the regional average. The treatments consisted of one application of aqueous 4-methyl-indole-3-acetic acid (4-ME-IAA) solutions at 1×10^−6M, 1×10^−5M, 5×10^−5M, or 1×10^−4M in 0.1% (v/v) Tween 80, or an aqueous control solution (0.1% [v/v] Tween 80) applied to the plants on Jul. 10, 2011, when about 5% of the plants were in first flower (1 treatment per plot; 5 treatments/plots total). A separate Chapin 20000-type 4 L pneumatic sprayer was used for applying each treatment solution; each sprayer was equipped with a medium-delivery blue fan nozzle designed to deliver 1.4 L per minute at the normal operating pressure of 40 PSI. Each plot was sprayed with a total of 0.7 L of solution to obtain uniform coverage. At the time of spraying, the mean day temperature was 15.9° C., the mean wind speed was 7 km/h, the relative humidity was 86%, and the sky was overcast. Harvesting (by hand) took place Aug. 27 to 30, 2011 after the plants had desiccated naturally. The pods were further dried for six days in a forced-air drier at 30° C. prior to obtaining seed weights. Each plot was harvested in eight groups of 20 contiguous plants arranged so that each group (1 m section of row) had at least two plants immediately next to it at each end. The treatment replication unit was 20 contiguous plants as diagramed in Figure P1. As the between-row spacing was 50 cm, the yield from each group represented that from 0.5 m^2

wheat 'Harvest HRS' = experiment: Wheat field experiment (Table W1); type: in vivo, Triticum aestivum; details: 1×10^−5 M
Experimental: The wheat (Triticum aestivum) cultivar Harvest HRS was seeded on May 20, 2011 with a target of 250 seedlings per m^2 into a field plot located at the St. Albert Field-Research Station of the University of Alberta, St. Albert, Alberta, Canada that was seeded with canola the previous season. Eight 2×4 m plots were cut out of a larger field plot with a mower producing two rows of four 2×4 m plots with a 1 m buffer between each plot and 4 m between the 4-plot rows. The hormone treatments were randomly assigned to the 2×4 plots. Aqueous solutions of 4-ME-IAA at 1×10^−5 M in 0.1% (v/v) Tween 80 or control solutions (0.1% [v/v]Tween 80) were sprayed Jul. 15, 2011 in slightly breezy (8 km/h), overcast weather, temperature 16° C. Three hours later, the sun emerged and the ambient temperature rose from 16° C. to 21° C. The relative humidity at the time of spraying was 75%. On average, 15% of the plants in the plots had their first florets open at the time of hormone application. A separate Chapin 20000-type 4 L pneumatic sprayer was used for applying the 4-ME-IAA and the control solutions; each sprayer was equipped with a medium-delivery blue fan nozzle designed to deliver 1.4 L per minute at the normal operating pressure of 40 PSI. Each plot was sprayed with a total of 0.91 L of solution to obtain uniform coverage.

[3] = 1 μM, non-heat stressed, at plant maturity
[4] = non-stressed, at plant maturity
[5] = At maturity, 20 spikes per plot

Cc1cccc2[nH]cc(CC(=O)O)c12 [4-ME-IAA, 4-methyl-indole-3-acetic acid]
plant maturation (dry-down), FIG. 3 ([1]; 1 μM in 0.1% Tween 80, 34 days after spray): stimulated maturation of the plant | Number of pods per plant [1, 3]: 14.9 ± 0.6 | Number of seeds per plant [1, 3]: 57.6 ± 3.5 | Number of stems/stems with pods per plant [1, 3]: 1.1 ± 0.1 | Total seed weight per plant [1, 3]: 13.56 ± 0.64 g | Weight per seed [1, 3]: 0.24 ± 0.01 g | Number of pods with developing seeds per plant ([1]; Heat-stressed (34° C. 6 h/day, 4 days), 1 μM in 0.1% Tween 80, 16 hr before heat, 9 to 10 days after removal from heat treatment): 10.6 ± 0.8 | Number of pods with developing seeds per plant ([1]; Non-stressed (19° C./17° C.), 1 μM in 0.1% Tween 80, 9 to 10 days): 15.4 ± 0.6 | increase in pod retention vs control ([1]; heat-stress conditions, 9-10 days after application): 112% | pod retention, FIG. 2 ([1]; non-stressed and heat-stress conditions, 9-10 days after application): increased pod retention | increase in pod retention vs control ([1]; non-stressed conditions, 9-10 days after application): 41% | Weight per seed [1, 4]: 240 mg per seed | increase in number of seeds per plant vs control [1, 4]: 39% | increase in total seed weight per plant vs control [1, 4]: 23% | more pods per plant with mature seeds than control [1, 4]: 42% | increase in seed yield vs control ([2]; 1×10^−4 M): 28% | Seed yield per 1 meter row ([2]; 1×10^−4 M): 123.20 ± 9.19 g | Seed yield per 1 meter row ([2]; 1×10^−5 M): 105.63 ± 10.72 g | increase in seed yield vs control ([2]; 1×10^−6 M): 43% | Seed yield per 1 meter row ([2]; 1×10^−6 M): 137.84 ± 10.16 g | Seed yield per 1 meter row ([2]; 5×10^−5 M): 78.85 ± 12.06 g | increase in seed number per floral spike (wheat 'Harvest HRS'): 10% | increase in seed weight per floral spike (wheat 'Harvest HRS'): 12% | Seed number per spike (wheat 'Harvest HRS'; At maturity): 27.5 ± 1.3 | Seed weight per spike (wheat 'Harvest HRS'; At maturity): 1.03 ± 0.05 g | Total seed number (wheat 'Harvest HRS'; [5]): 550.8 ± 26.6 | Total seed weight (wheat 'Harvest HRS'; [5]): 20.6 ± 1.1 g | Number of spikes per plant (wheat 'Harvest HRS'; Pre-harvest): 3.825 ± 0.207 | Plant height (wheat 'Harvest HRS'; Pre-harvest): 94.5 ± 0.4 cm
